Source: patent US9421273B2, “Silicon-containing fumaric acid esters” (Biogen Idec MA Inc., priority 2011, dated 2016)
Where a name gives a salt, the structure may show the parent alone.

Columns and labels:
[1] = system: Nrf2 (ARE-luciferase reporter) in MCF7/ARE-D3 cells; assay: Nrf2 activation cell-based assay, ARE-luciferase reporter, MCF7/ARE-D3 cell line; set-up: species or system Human; details: for Maximum Nrf2 Activation Fold Change: luciferase fold change over DMSO control
Procedure: (§1) Human cancer cell line DLD-1 and breast cancer cell line MCF7 reporter stable cell lines were generated by transfection with a firefly luciferase reporter construct harboring the luciferase cDNA cloned downstream of eight catenated copies of the antioxidant response element (ARE: SEQ ID NO.:1).
(§2) To measure Nrf2 activation in the ARE-luciferase reporter cell lines, the cells were plated in 96-well plates at 20-50 k cells/well 24 hours prior to stimulation with the test compounds. The test compounds were prepared in dimethylsulfoxide (DMSO) and diluted with culture media to required concentrations (final DMSO concentrations <0.3%). The reporter cells were harvested 24 hours-48 hours after addition of the compounds and lysed for detection of luciferase activity. Luciferase activity in the lysates was monitored using the Bright-Glo Luciferase Assay System of Promega and Tecan Genios Pro plate reader.
(§3) Luciferase induction in the compound-treated cells was calculated as fold change over the baseline activity detected in control cultures treated with DMSO-containing media.

[2] = system: Nrf2 (ARE-luciferase reporter) in DLD-1/ARE-E2 cells; assay: Nrf2 activation cell-based assay, ARE-luciferase reporter, DLD-1/ARE-E2 cell line; set-up: species or system Human; details: for Concentration at maximum Nrf2 activation fold change (@ [uM]) / Maximum Nrf2 Activation Fold Change: DLD-1/ARE-E2; for Maximum Nrf2 Activation Fold Change: luciferase fold change over DMSO control; for Activation of ARE-dependent signaling of the luciferase reporter construct: summary in words of Table 1 (both reporter cell lines)
Procedure: as §1, §2, §3

Compound: COC(=O)/C=C/C(=O)O[Si](C)(C)OC(=O)/C=C/C(=O)OC [Compound 11, (E)-O,O′-(dimethylsilanediyl)dimethyl difumarate]
- Concentration at maximum Nrf2 activation fold change (@ [uM]) ([1]; 24 hr stimulation): 750 µM
- Maximum Nrf2 Activation Fold Change ([1]; 24 hr stimulation): 97
- Concentration at maximum Nrf2 activation fold change (@ [uM]) ([1]; 48 hr stimulation): 500 µM
- Maximum Nrf2 Activation Fold Change ([1]; 48 hr stimulation): 126
- Concentration at maximum Nrf2 activation fold change (@ [uM]) ([2]; 24 hr stimulation): 1000 µM
- Maximum Nrf2 Activation Fold Change ([2]; 24 hr stimulation): 42
- Concentration at maximum Nrf2 activation fold change (@ [uM]) ([2]; 48 hr stimulation): 1000 µM
- Maximum Nrf2 Activation Fold Change ([2]; 48 hr stimulation): 43
- Activation of ARE-dependent signaling of the luciferase reporter construct [2]: able to activate ARE-dependent signaling

Compound: COC(=O)/C=C/C(=O)OC[Si](OC)(OC)OC [Compound 12, methyl ((trimethoxysilyl)methyl) fumarate]
- Concentration at maximum Nrf2 activation fold change (@ [uM]) ([1]; 24 hr stimulation): 500 µM
- Maximum Nrf2 Activation Fold Change ([1]; 24 hr stimulation): 49
- Concentration at maximum Nrf2 activation fold change (@ [uM]) ([1]; 48 hr stimulation): 500 µM
- Maximum Nrf2 Activation Fold Change ([1]; 48 hr stimulation): 65
- Concentration at maximum Nrf2 activation fold change (@ [uM]) ([2]; 24 hr stimulation): 250 µM
- Maximum Nrf2 Activation Fold Change ([2]; 24 hr stimulation): 24
- Concentration at maximum Nrf2 activation fold change (@ [uM]) ([2]; 48 hr stimulation): 375 µM
- Maximum Nrf2 Activation Fold Change ([2]; 48 hr stimulation): 48
- Activation of ARE-dependent signaling of the luciferase reporter construct [2]: able to activate ARE-dependent signaling

Compound: COC(=O)/C=C/C(=O)OC [DMF, dimethyl fumarate, reference compound]
- Concentration at maximum Nrf2 activation fold change (@ [uM]) ([1]; 24 hr stimulation): 94 µM
- Maximum Nrf2 Activation Fold Change ([1]; 24 hr stimulation): 24
- Concentration at maximum Nrf2 activation fold change (@ [uM]) ([1]; 48 hr stimulation): 94 µM
- Maximum Nrf2 Activation Fold Change ([1]; 48 hr stimulation): 45
- Concentration at maximum Nrf2 activation fold change (@ [uM]) ([2]; 24 hr stimulation): 31 µM
- Maximum Nrf2 Activation Fold Change ([2]; 24 hr stimulation): 11
- Concentration at maximum Nrf2 activation fold change (@ [uM]) ([2]; 48 hr stimulation): 47 µM
- Maximum Nrf2 Activation Fold Change ([2]; 48 hr stimulation): 13

Compound: COC(=O)/C=C/C(=O)O [MMF, monomethyl fumarate, reference compound]
- Concentration at maximum Nrf2 activation fold change (@ [uM]) ([1]; 24 hr stimulation): 1000 µM
- Maximum Nrf2 Activation Fold Change ([1]; 24 hr stimulation): 56
- Concentration at maximum Nrf2 activation fold change (@ [uM]) ([1]; 48 hr stimulation): 1000 µM
- Maximum Nrf2 Activation Fold Change ([1]; 48 hr stimulation): 88
- Concentration at maximum Nrf2 activation fold change (@ [uM]) ([2]; 24 hr stimulation): 1000 µM
- Maximum Nrf2 Activation Fold Change ([2]; 24 hr stimulation): 7
- Concentration at maximum Nrf2 activation fold change (@ [uM]) ([2]; 48 hr stimulation): 1000 µM
- Maximum Nrf2 Activation Fold Change ([2]; 48 hr stimulation): 14
